According to US20260125359A1, “HETEROARYL COMPOUNDS AS MULTI-TARGET PROTEIN KINASE INHIBITORS” (FUJIAN HAIXI PHARMACEUTICALS CO., LTD., priority 2023, published 2026):

How the values were obtained:
[1] = target: PDGFR-α (Homo sapiens, UniProt P16234); test: PDGFR-α in vitro kinase activity assay (HTRF kinEASE TK); assay type: biochemical; conditions: for inhibition at 0.01 µM: compound 10 nM, read-out: PDGFRα inhibition rate, 10 nM; for inhibition at 0.1 µM: compound 100 nM, read-out: PDGFRα inhibition rate, 100 nM
Source text: (§1) CSF-1R, PDGFR-α, KDR (VEGFR2) and KIT in vitro Kinase Activity Assay:
(§2) • ENVISION (Perkinelmer, 2104) • White 384-well MicroPlate (Cat #264706, Nunc) • HTRF kinEASE TK kit main reagents (Cat #62TKOPEC, Cisbio) • TK-biotin substrate • Streptavidin-XL665 • TK Antibody-Cryptate • 5× Enzymatic buffer (5×KB) • Staphylococcal enterotoxin B (SEB) • HTRF Detection buffer • CSF-1R (Cat #PV3249, Invitrogen) • PDGFR-α (Cat #PV3811, Invitrogen) • KDR (Cat #PV3660, Invitrogen) • KIT (Cat #08-156, Carna) • ATP 10 mM (Cat #PV3227, Invitrogen) • DTT 1 M (Cat #D5545, Sigma) • MgCl2 1 M (Cat #M8266, Sigma) • MnCl2 1 M (Cat #244589, Sigma)
(§3) Dilute Substrate-TK and ATP to 5× of the reaction concentration using 1× Kinase Buffer.
(§4) Prepare the 5× enzyme working solution using 1× Kinase Buffer.
(§5) Prepare the 4×Sa-XL665 working solution using Detection Buffer.
(§6) Dilute TK-Ab-Cryptate 100 times using Detection Buffer to prepare the working solution.
(§7) After all reagents were prepared according to the methods described above, except for the enzyme, they were equilibrated to room temperature before starting the sample addition. • a) First, 2.5% DMSO solutions were prepared separately using the pre-prepared 1× kinase buffer (DMSO concentrations that were too high could affect the reaction, so the final concentration of DMSO was controlled at 1%). Then, the corresponding 2.5% DMSO solution for the enzyme was used to dilute the test compounds. Compounds were screened with two concentrations of 100 nM and 10 nM. Except for the control wells, 4 μL of the diluted test compound solution was added to the reaction wells, and 4 μL of the pre-prepared 2.5% DMSO solution was added to the control wells. • b) 2 μL of the pre-prepared TK-biotin substrate solution at the corresponding concentration for the kinase was added to all reaction wells. • c) 2 μL of the pre-prepared enzyme solution at the corresponding concentration was added to all reaction wells except the negative control wells. For the negative control wells, 2 μL of 1× kinase buffer corresponding to the enzyme was added to make up the volume. The plate was sealed with sealing film, mixed gently, and incubated at room temperature for 10 min to allow the compounds to fully interact with the enzyme. • d) 2 μL of the ATP solution at the corresponding concentration for the enzyme was added to all reaction wells to initiate the kinase reaction. ATP concentrations and reaction times for enzyme screening are shown in Table 26 • e) Five minutes before the end of the kinase reaction, the detection solution was prepared. The detection buffer from the kit was used to prepare detection solutions for Streptavidin-XL665 and TK antibody europium cryptate (1:100) at the appropriate concentrations for the two enzymes. • f) After the kinase reaction was completed, 5 μL of the diluted Streptavidin-XL665 solution was added to all reaction wells. After mixing, the diluted TK antibody europium cryptate detection solution was immediately added. • g) The plate was sealed and mixed, incubated at room temperature for 1 hour, and the fluorescence signal was detected using the ENVISION (PerkinElmer) instrument (excitation at 320 nm, emission at 665 nm and 615 nm). The inhibition rate for each well was calculated based on the full-activity control wells and background signal wells, and the average value of the replicates was taken.

[2] = target: CSF-1R (Homo sapiens, UniProt P07333); test: CSF-1R in vitro kinase activity assay (HTRF kinEASE TK); assay type: biochemical; conditions: for inhibition at 0.01 µM: compound 10 nM, read-out: CSF-1R inhibition rate, 10 nM; for inhibition at 0.1 µM: compound 100 nM, read-out: CSF-1R inhibition rate, 100 nM
Source text: as §1, §2, §3, §4, §5, §6, §7

[3] = target: DDR1 (Homo sapiens, UniProt Q08345); test: DDR1 in vitro kinase activity assay (LanthaScreen Eu-anti-GST antibody / Kinase Tracer 178); assay type: binding; conditions: for inhibition at 0.01 µM: compound 10 nM, read-out: DDR1 inhibition rate, 10 nM; for inhibition at 0.1 µM: compound 100 nM, read-out: DDR1 inhibition rate, 100 nM
Protocol: DDR1 in vitro Kinase Activity Assay:
• ENVISION (Perkinelmer, 2104) • White 384-well MicroPlate (Cat #264706, Nunc) • DDR1 (Cat #PV6047, Invitrogen) • 5× Kinase Buffer A (Cat #PV3189, Invitrogen) • Kinase Tracer 178 (Cat #PV5593, Invitrogen) • LanthaScreen® Eu-anti-GST Antibody (Cat #PV5594, Invitrogen)
The compounds to be tested were tested at two concentrations of 100 nM and 10 nM.
Kinase/Antibody Mixtures Preparation: Dilute Kinase/Antibody Mixtures with 1× Kinase Buffer to form 3× working solutions with final concentrations of 5 nM kinase and 2 nM Eu-Anti-GST Antibody, respectively.
Kinase Tracer 178 Preparation: Dilute Kinase Tracer 178 with 1× Kinase Buffer to make a 3× working solution with a final concentration of 10 nM.
After all reagents were prepared according to the methods described above, except for the enzyme, they were equilibrated to room temperature before starting the sample addition. • a) First, 3% DMSO solutions were prepared separately using the pre-prepared 1× kinase buffer (DMSO concentrations that were too high could affect the reaction, so the final concentration of DMSO was controlled at 1%). Then, the corresponding 3% DMSO solution for the enzyme was used to dilute the test compounds. Compounds were screened with two concentrations of 100 nM and 10 nM. Except for the control wells, 5 μL of the diluted test compound solution was added to the reaction wells, and 5 μL of the pre-prepared 3% DMSO solution was added to the control wells. • b) 5 μL of the pre-prepared Kinase/Antibody mixtures was added to all reaction wells except the negative control wells. For the negative control wells, 5 μL of 1× kinase buffer corresponding to the enzyme was added to make up the volume. • c) 5 μL of the pre-prepared Kinase Tracer 178 solution was added to all reaction wells. • d) The plate was sealed and mixed, incubated at room temperature for 1 hour, and the fluorescence signal was detected using the ENVISION (PerkinElmer) instrument (excitation at 340 nm, emission at 665 nm and 615 nm). The inhibition rate for each well was calculated based on the full-activity control wells and background signal wells, and the average value of the replicates was taken.

[4] = target: KIT (Homo sapiens, UniProt P10721); test: KIT in vitro kinase activity assay (HTRF kinEASE TK); assay type: biochemical; conditions: for inhibition at 0.01 µM: compound 10 nM, read-out: KIT inhibition rate, 10 nM; for inhibition at 0.1 µM: compound 100 nM, read-out: KIT inhibition rate, 100 nM
Source text: as §1, §2, §3, §4, §5, §6, §7

[5] = target: KDR (VEGFR2) (Homo sapiens, UniProt P35968); test: KDR (VEGFR2) in vitro kinase activity assay (HTRF kinEASE TK); assay type: biochemical; conditions: for inhibition at 0.01 µM: compound 10 nM, read-out: VEGFR2 inhibition rate, 10 nM; for inhibition at 0.1 µM: compound 100 nM, read-out: VEGFR2 inhibition rate, 100 nM
Source text: as §1, §2, §3, §4, §5, §6, §7

PDGFR-α, sequence (P16234 24-1089): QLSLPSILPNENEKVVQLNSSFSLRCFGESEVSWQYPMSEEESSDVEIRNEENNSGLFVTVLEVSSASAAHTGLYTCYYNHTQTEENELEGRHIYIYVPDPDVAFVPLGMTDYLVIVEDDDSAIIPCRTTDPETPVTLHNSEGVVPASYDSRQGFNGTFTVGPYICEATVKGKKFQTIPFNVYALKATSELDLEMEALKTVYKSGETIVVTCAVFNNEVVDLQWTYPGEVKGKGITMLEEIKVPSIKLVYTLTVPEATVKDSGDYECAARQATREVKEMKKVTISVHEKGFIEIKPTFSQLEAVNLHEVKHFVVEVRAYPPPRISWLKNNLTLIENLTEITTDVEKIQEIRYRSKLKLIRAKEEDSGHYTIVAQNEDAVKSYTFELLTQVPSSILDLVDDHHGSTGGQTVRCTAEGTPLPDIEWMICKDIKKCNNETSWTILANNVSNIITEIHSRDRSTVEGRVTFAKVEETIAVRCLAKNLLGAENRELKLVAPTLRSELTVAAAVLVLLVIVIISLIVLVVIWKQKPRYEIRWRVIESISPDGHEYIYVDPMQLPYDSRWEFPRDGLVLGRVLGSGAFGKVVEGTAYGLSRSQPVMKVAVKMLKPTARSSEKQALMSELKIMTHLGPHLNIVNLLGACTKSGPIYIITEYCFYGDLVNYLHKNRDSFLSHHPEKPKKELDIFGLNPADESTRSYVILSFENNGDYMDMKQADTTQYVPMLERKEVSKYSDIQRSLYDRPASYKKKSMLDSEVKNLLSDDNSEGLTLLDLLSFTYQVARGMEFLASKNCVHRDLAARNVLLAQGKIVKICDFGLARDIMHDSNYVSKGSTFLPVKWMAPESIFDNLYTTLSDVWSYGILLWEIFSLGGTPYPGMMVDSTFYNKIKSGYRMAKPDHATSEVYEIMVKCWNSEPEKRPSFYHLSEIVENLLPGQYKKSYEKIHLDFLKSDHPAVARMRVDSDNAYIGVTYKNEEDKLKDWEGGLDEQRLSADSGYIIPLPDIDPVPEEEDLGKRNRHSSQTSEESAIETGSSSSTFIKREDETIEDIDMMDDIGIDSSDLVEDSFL
DDR1, sequence (Q08345 19-913): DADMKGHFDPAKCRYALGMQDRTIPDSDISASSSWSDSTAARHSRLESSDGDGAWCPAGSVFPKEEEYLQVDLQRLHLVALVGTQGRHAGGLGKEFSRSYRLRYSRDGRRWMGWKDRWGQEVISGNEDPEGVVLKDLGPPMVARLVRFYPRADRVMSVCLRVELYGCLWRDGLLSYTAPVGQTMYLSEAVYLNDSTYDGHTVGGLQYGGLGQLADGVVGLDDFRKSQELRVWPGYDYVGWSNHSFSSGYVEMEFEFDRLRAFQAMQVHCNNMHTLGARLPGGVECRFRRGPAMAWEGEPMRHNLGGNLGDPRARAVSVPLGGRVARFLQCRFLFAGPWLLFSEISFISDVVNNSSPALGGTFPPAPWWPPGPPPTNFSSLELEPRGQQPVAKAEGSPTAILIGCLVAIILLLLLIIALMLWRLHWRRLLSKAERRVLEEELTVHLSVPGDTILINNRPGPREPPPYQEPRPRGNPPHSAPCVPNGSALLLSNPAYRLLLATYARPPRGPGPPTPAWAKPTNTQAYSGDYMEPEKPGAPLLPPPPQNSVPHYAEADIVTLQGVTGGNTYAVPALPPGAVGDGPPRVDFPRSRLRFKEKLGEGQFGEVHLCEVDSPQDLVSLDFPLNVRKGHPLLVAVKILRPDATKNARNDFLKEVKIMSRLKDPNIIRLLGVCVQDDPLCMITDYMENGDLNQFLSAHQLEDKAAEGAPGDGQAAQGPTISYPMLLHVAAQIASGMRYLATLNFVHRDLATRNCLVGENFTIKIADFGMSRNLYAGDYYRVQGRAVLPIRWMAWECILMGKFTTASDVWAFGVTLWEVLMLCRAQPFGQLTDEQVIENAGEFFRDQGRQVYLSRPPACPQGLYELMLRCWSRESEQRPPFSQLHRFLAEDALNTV
KIT, sequence (P10721 26-976): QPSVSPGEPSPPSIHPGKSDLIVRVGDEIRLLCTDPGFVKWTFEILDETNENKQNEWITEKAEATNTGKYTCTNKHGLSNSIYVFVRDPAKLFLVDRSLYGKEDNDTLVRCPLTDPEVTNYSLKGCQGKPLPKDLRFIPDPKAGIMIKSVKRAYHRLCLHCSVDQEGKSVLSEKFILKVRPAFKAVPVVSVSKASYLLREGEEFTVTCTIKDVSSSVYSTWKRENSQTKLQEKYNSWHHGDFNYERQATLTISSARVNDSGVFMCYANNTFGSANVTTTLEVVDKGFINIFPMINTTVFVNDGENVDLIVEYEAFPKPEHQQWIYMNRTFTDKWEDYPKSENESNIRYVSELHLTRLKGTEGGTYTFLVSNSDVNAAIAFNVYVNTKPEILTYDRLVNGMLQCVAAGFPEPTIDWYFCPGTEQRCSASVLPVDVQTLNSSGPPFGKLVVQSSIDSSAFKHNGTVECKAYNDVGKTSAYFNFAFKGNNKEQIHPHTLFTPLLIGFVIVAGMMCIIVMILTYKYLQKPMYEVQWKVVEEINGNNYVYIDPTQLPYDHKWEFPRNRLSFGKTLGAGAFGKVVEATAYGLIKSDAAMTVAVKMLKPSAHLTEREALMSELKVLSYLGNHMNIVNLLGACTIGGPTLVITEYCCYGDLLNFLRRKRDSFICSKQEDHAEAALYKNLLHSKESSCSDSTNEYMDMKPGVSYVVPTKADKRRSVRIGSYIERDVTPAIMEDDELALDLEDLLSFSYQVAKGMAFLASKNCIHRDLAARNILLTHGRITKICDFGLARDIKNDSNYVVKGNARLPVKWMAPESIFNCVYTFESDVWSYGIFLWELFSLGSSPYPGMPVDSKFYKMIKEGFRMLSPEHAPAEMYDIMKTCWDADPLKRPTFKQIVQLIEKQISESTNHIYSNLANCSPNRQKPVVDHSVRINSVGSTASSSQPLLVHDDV
CSF-1R, sequence (P07333 20-972): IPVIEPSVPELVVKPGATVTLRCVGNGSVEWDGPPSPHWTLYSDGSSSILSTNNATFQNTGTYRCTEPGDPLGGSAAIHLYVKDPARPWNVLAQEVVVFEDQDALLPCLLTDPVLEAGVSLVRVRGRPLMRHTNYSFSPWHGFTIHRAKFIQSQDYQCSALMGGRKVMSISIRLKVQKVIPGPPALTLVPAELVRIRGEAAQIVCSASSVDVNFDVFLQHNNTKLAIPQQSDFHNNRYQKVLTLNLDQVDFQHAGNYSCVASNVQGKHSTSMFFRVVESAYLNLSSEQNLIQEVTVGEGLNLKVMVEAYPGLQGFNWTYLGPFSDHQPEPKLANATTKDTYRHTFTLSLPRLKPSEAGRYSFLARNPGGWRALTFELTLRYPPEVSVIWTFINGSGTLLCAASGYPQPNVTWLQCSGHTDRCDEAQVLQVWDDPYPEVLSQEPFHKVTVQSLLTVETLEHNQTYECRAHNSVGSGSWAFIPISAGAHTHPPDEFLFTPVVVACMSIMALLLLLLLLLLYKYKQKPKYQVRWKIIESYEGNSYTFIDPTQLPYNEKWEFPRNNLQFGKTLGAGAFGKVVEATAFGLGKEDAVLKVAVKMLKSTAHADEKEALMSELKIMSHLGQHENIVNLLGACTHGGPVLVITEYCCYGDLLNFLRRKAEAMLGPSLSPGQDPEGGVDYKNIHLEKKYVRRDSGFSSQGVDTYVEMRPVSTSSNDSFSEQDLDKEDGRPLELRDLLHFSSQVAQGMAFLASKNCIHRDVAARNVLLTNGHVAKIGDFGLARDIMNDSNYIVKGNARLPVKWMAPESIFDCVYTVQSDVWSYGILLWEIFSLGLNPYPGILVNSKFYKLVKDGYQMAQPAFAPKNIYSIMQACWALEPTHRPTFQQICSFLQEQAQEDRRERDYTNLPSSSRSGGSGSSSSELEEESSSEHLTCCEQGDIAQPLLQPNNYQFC

inhibition at 0.01 µM [1]	inhibition at 0.1 µM [1]	inhibition at 0.01 µM [2]	inhibition at 0.1 µM [2]	inhibition at 0.01 µM [3]	inhibition at 0.1 µM [3]	inhibition at 0.01 µM [4]	inhibition at 0.1 µM [4]	inhibition at 0.01 µM [5]	inhibition at 0.1 µM [5]	SMILES
69.1%	96.9%	24.3%	98.4%	75.1%	97.9%	69.9%	104%	95%	100%	CN(c1cnc2cn(C)nc2c1)[C@H]1CCc2c(C(=O)Nc3nn(C)c4ccccc34)cccc21 [Compound 80l]
3.8%	68.3%	72%	96.6%	65.3%	97.1%	-3.9%	4.9%	24.6%	84.4%	CN(C)Cc1cncc(NC(=O)c2cccc3c2CC[C@@H]3Oc2cncc(-c3cnn(C)c3)c2)c1 [Compound 19h]
29.3%	94.8%	72.6%	96.3%	57.2%	99.9%	35.3%	94.9%	60.3%	94.9%	Cn1cc2ncc(N[C@H]3CCc4c(C(=O)Nc5nc(C6CC6)cs5)cccc43)cc2n1 [Compound 74h, (S)—N-(4-cyclopropylthiazol-2-yl)-1-((2-methyl-2H-pyrazolo[4,3-b]pyridin-6-yl)amino)-2,3-dihydro-1H-indene-4-carboxamide]
75.5%	100%	42.1%	95.9%	32.4%	61.4%	60.1%	95%	29.2%	82.6%	CN1CCc2nc(NC(=O)c3cccc4c3CC[C@@H]4Nc3cncc(-c4cnn(C)c4)c3)sc2C1 [Compound 14ba]
7.7%	38.7%	48.6%	100%	29.7%	88%	2.4%	15.3%	22.3%	62.6%	CN(c1cncc(-c2cnn(C)c2)c1)[C@H]1CCc2c(C(=O)Nc3cncc(Cl)c3)cccc21 [Compound 21, (S)—N-(5-chloropyridin-3-yl)-1-(methyl (5-(1-methyl-1H-pyrazol-4-yl)pyridin-3-yl)amino)-2,3-dihydro-1H-indene-4-carboxamide]
37.8%	89.3%	78.2%	99.1%	94.2%	99.6%	39.6%	79.1%	96.5%	102%	Cn1cc2ncc(O[C@H]3CCc4c(C(=O)Nc5cncc(Cl)c5)cccc43)cc2n1 [Compound 76ai]
90.9%	96.8%	80.1%	89.8%	88.6%	98.2%	76.8%	99.2%	97.8%	100%	Cn1cc(-c2cnc(N)c(O[C@H]3CCc4c(C(=O)Nc5cccc(C6CC6)c5)cccc43)c2)cn1 [Compound 4, (S)-1-((2-amino-5-(1-methyl-1H-pyrazol-4-yl)pyridin-3-yl)oxy)-N-(3-cyclopropylphenyl)-2,3-dihydro-1H-indene-4-carboxamide]
